Source: paper PMC4894417, “Quantitative High-Throughput Profiling of Environmental Chemicals and Drugs that Modulate Farnesoid X Receptor” (Scientific Reports, 2014)
Like-named read-outs stand apart in the source and are kept apart here. Numbered stars: 1 amine (or outer) side, 2 acyl side, 3 side chain; on linkers, the order of the positions; unused ones are H or OH. Bridge positions count the residues as written; N and C are the ends. Square brackets hold non-standard residues; d marks the D form. Peptide text beside a SMILES is read from it. I, II: the chains in the order shown. Actinocin(9to1) = Cc1c2oc3c(C)ccc(C(=O)[*:1])c3nc-2c(C(=O)[*:2])c(N)c1=O; NMeV = CN[C@H](C(=O)O)C(C)C; Sar = CNCC(=O)O

Legend:
[1] = test system: FXR-UAS-bla HEK293T cells; experiment: Cell viability assay (CellTiter Glo) in the same well as FXR-bla; settings: for IC50: read-out: Cytotoxicity IC50
human FXR [2] = molecular target: T1, human FXR (Homo sapiens, UniProt Q96RI1); experiment: FXR-bla reporter gene assay, antagonist mode (CDCA-induced transactivation); settings: for FXR antagonist activity: FXR-bla assay
human FXR [3] = molecular target: T1, human FXR; experiment: FXR-bla reporter gene assay, agonist mode (qHTS); settings: for FXR agonist activity: FXR-bla assay; for FXR agonist Efficacy: Table S3; for FXR agonist EC50: Table S3, FXR-active drugs
[4] = IC50, FXR-bla antagonist mode, primary screening, CDCA-induced
[5] = Table S1, primary screening, 50 µM CDCA
[6] = Table 1, mean ± SD of 3 experiments

T1 sequence (Q96RI1 with tags, fused parts or gaps limits assumed): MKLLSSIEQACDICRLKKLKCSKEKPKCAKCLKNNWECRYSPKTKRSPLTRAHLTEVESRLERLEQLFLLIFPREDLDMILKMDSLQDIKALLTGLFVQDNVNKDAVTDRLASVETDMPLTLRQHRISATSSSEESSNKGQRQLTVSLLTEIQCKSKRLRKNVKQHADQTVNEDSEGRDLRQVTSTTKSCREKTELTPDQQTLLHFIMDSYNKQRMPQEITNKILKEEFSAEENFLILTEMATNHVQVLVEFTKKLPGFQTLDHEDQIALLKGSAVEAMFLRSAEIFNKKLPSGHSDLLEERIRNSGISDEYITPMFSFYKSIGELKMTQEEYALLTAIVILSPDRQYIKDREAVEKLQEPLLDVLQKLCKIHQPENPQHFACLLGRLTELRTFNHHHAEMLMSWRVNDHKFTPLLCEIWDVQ

## Cc1c(COC(=O)[C@@H]2[C@H](/C=C(\Cl)C(F)(F)F)C2(C)C)cccc1-c1ccccc1 (racemic) [Bifenthrin]
[1]; Table S1, primary screening
  Cytotoxicity IC50: Inactive
Human FXR [2]
  FXR antagonist mode Efficacy: 50 ± 16
Human FXR [2]; FXR antagonist mode IC50
  IC50: 11.3 ± 4.58 µM
Human FXR [2]; CDCA-induced
  FXR antagonist activity: highly selective FXR antagonists
Human FXR [3]; Table S1, primary screening
  FXR agonist mode EC50: Inactive

## Cc1c(F)c(F)c(COC(=O)[C@@H]2[C@H](/C=C(\Cl)C(F)(F)F)C2(C)C)c(F)c1F (racemic) [Tefluthrin]
[1]; Table S1, primary screening
  Cytotoxicity IC50: Inactive
Human FXR [2]
  FXR antagonist mode Efficacy: 46 ± 7
Human FXR [2]; FXR antagonist mode IC50
  IC50: 12.4 ± 2.01 µM
Human FXR [3]; Table S1, primary screening
  FXR agonist mode EC50: Inactive

## C[C@]12CC[C@@H]3c4ccc(O)cc4CC[C@H]3[C@@H]1CC[C@H]2O [17α-Estradiol]
[1]; Table S1, primary screening
  Cytotoxicity IC50: Inactive

## C[C@]12CC[C@@H]3c4ccc(O)cc4CC[C@H]3[C@@H]1CC[C@@H]2O [17β-Estradiol]
[1]; Table S1, primary screening
  Cytotoxicity IC50: Inactive

## Cc1c2oc3c(C)ccc(C(=O)N[C@@H]4C(=O)N[C@H](C(C)C)C(=O)N5CCC[C@H]5C(=O)N(C)CC(=O)N(C)[C@@H](C(C)C)C(=O)O[C@@H]4C)c3nc-2c(C(=O)N[C@@H]2C(=O)N[C@H](C(C)C)C(=O)N3CCC[C@H]3C(=O)N(C)CC(=O)N(C)[C@@H](C(C)C)C(=O)O[C@@H]2C)c(N)c1=O [Actinomycin D] (I: T[dV]P[Sar][NMeV] / II: T[dV]P[Sar][NMeV]; ester I:1-I:C, II:1-II:C; linker I:N-II:N via Actinocin(9to1))
[1]
  Cell viability IC50: Inactive

## CCC[S+]([O-])c1ccc2[nH]c(NC(=O)OC)nc2c1 (stereo not shown) [Albendazole oxide]
[1]; Table S1, primary screening
  Cytotoxicity IC50: Inactive
Human FXR [2]
  FXR antagonist mode Efficacy: 35 ± 16%
Human FXR [2]; FXR antagonist mode IC50
  IC50: 27.9 ± 5.02 µM
Human FXR [3]; Table S1, primary screening
  FXR agonist mode EC50: Inactive

## O=c1cc(-c2ccc(O)cc2)oc2cc(O)cc(O)c12 [Apigenin]
[1]; Table S1, primary screening
  Cytotoxicity IC50: Inactive

## CCOC(=O)[C@H](CCc1ccccc1)N[C@H]1CCc2ccccc2N(CC(=O)O)C1=O [Benazepril]
[1]; Table S3
  Cytotoxicity Efficacy: 87 ± 27%

## COC(=O)C1=C(C)NC(C)=C(C(=O)OC2CCCN(Cc3ccccc3)C2)C1c1cccc([N+](=O)[O-])c1 (stereo not shown) [Benidipine]
[1]; Table S1, primary screening
  Cytotoxicity IC50: Inactive
Human FXR [2]; [4]
  IC50: 24.8 µM
Human FXR [2]; [5]
  FXR antagonist mode Efficacy: 84 ± 17%
Human FXR [2]; Table S3, 50 µM CDCA
  FXR antagonist Efficacy: 84 ± 17%
Human FXR [3]
  FXR agonist activity: weak FXR agonist activity
Human FXR [3]; Table S1, primary screening
  FXR agonist mode EC50: Inactive

## CCCCNC(=O)n1c(NC(=O)OC)nc2ccccc21 [Benomyl]
[1]; Table S1, primary screening
  Cytotoxicity IC50: Inactive
Human FXR [2]
  FXR antagonist mode Efficacy: 21 ± 18%
Human FXR [2]; [4]
  IC50: 18.3 µM
Human FXR [3]; Table S1, primary screening
  FXR agonist mode EC50: Inactive

## C[C@H](CCC(=O)O)[C@H]1CC[C@H]2[C@@H]3[C@H](O)C[C@@H]4C[C@H](O)CC[C@]4(C)[C@H]3CC[C@]12C [CDCA, Chenodeoxycholic acid]
[1]; Table S1, primary screening
  Cytotoxicity Efficacy: 50 ± 1%

## COCCOC(=O)C1=C(C)NC(C)=C(C(=O)OC/C=C/c2ccccc2)C1c1cccc([N+](=O)[O-])c1 (stereo not shown) [Cilnidipine]
[1]; Table S1, primary screening
  Cytotoxicity IC50: Inactive
Human FXR [2]
  IC50: 31.1 ± 2.1 µM
Human FXR [2]; [5]
  FXR antagonist mode Efficacy: 64 ± 12%
Human FXR [2]; Table S3, 50 µM CDCA
  FXR antagonist Efficacy: 64 ± 12%
Human FXR [3]
  EC50: 8.08 ± 3.4 µM
  FXR agonist activity: FXR agonists
  FXR agonist Efficacy: 64 ± 7%
Human FXR [3]; Table S1, primary screening, CDCA 100%
  FXR agonist mode Efficacy: 64 ± 7%

## O=C(Nc1ccccc1)c1ccccc1SSc1ccccc1C(=O)Nc1ccccc1 [DTBBA, 2,2-Dithiobisbenzanilide]
Human FXR [2]
  FXR antagonist mode Efficacy: 51 ± 17
Human FXR [2]; read-out: FXR antagonist mode IC50
  IC50: 18 ± 8.46 µM
Human FXR [3]
  FXR agonist mode Efficacy: 31 ± 13
Human FXR [3]; read-out: FXR agonist mode EC50, Table S1, primary screening
  EC50: 24.6 ± 15.3 µM

## CC(=O)O[C@@]12CO[C@@H]1C[C@H](O)[C@@]1(C)C(=O)[C@H](O)C3=C(C)[C@@H](OC(=O)[C@H](O)[C@@H](NC(=O)OC(C)(C)C)c4ccccc4)C[C@@](O)([C@@H](OC(=O)c4ccccc4)[C@H]21)C3(C)C [Docetaxel]
[1]; Table S1, primary screening
  Cytotoxicity IC50: Inactive
Human FXR [2]
  IC50: 0.008 ± 0.005 µM
Human FXR [2]; CDCA-induced
  FXR antagonist activity: antagonistic effects
Human FXR [2]; [5]
  FXR antagonist mode Efficacy: 35 ± 4%
Human FXR [3]; Table S1, primary screening
  FXR agonist mode EC50: Inactive

## CO[C@H]1C[C@H](O[C@H]2[C@H](C)O[C@@H](O[C@@H]3/C(C)=C/C[C@@H]4C[C@@H](C[C@]5(C=C[C@H](C)[C@@H](C6CCCCC6)O5)O4)OC(=O)[C@@H]4C=C(C)[C@@H](O)[C@H]5OC/C(=C\C=C\[C@@H]3C)[C@]54O)C[C@@H]2OC)O[C@@H](C)[C@@H]1O [Doramectin]
[1]; Table S1, primary screening
  Cytotoxicity Efficacy: 116 ± 6%
  IC50: 11 µM
[1]; Table S3
  Cytotoxicity Efficacy: 116 ± 6%
Human FXR [2]
  FXR antagonist Efficacy: 152 ± 10%
  FXR antagonist mode Efficacy: 152 ± 10%
Human FXR [3]
  FXR agonist mode Efficacy: 62 ± 9%
  FXR agonist Efficacy: 62 ± 9%

## COc1cccc2c1C(=O)c1c(O)c3c(c(O)c1C2=O)C[C@@](O)(C(=O)CO)C[C@@H]3O[C@H]1C[C@H](N)[C@@H](O)[C@H](C)O1 [Epirubicin]
[1]; [6]
  Cell viability IC50: Inactive

## CCOc1ccc2nc3cc(N)ccc3c(N)c2c1 [Ethacridine]
Human FXR [2]; Table S3, 50 µM CDCA
  FXR antagonist Efficacy: 75 ± 17%
Human FXR [3]
  EC50: 21.4 ± 12 µM
  FXR agonist Efficacy: 31 ± 11%

## C#C[C@]1(O)CC[C@H]2[C@@H]3CCc4cc(O)ccc4[C@H]3CC[C@@]21C [Ethinylestradiol]
[1]; Table S1, primary screening
  Cytotoxicity Efficacy: 36 ± 47%
[1]; Table S3
  Cytotoxicity Efficacy: 36 ± 47%

## CC[C@]1(O)CC[C@H]2[C@@H]3CCC4=CCCC[C@@H]4[C@H]3CC[C@@]21C [Ethylestrenol]
Human FXR [2]
  FXR antagonist Efficacy: 66 ± 11%
Human FXR [3]
  FXR agonist EC50: Inactive

## CN1CC[C@H](c2c(O)cc(O)c3c(=O)cc(-c4ccccc4Cl)oc23)[C@H](O)C1 [Flavopiridol]
[1]; [6]
  Cell viability IC50: Inactive

## C[C@]12CC[C@@H]3c4ccc(O)cc4C[C@@H](CCCCCCCCC[S+]([O-])CCCC(F)(F)C(F)(F)F)[C@H]3[C@@H]1CC[C@@H]2O (stereo partly shown) [Fulvestrant]
[1]; Table S1, primary screening
  Cytotoxicity IC50: Inactive

## CC(C)c1onc(-c2c(Cl)cccc2Cl)c1COc1ccc(/C=C/c2cccc(C(=O)O)c2)c(Cl)c1 [GW4064]
[1]; Table S1, primary screening
  Cytotoxicity IC50: Inactive

## CC[C@H](C)[C@H]1O[C@]2(CC[C@@H]1C)C[C@@H]1C[C@@H](C/C=C(\C)[C@@H](O[C@H]3C[C@H](OC)[C@@H](O[C@H]4C[C@H](OC)[C@@H](O)[C@H](C)O4)[C@H](C)O3)[C@@H](C)/C=C/C=C3\CO[C@@H]4[C@H](O)C(C)=C[C@@H](C(=O)O1)[C@]34O)O2 [Ivermectin B1a]
[1]; Table S1, primary screening
  Cytotoxicity Efficacy: 124 ± 6%
  IC50: 14.1 ± 2.63 µM
[1]; Table S3
  Cytotoxicity Efficacy: 124 ± 6%

## CO[C@@]12[C@H](COC(N)=O)C3=C(C(=O)C(C)=C(N)C3=O)N1C[C@@H]1N[C@@H]12 [Mitomycin C]
Human FXR [2]; Table S3, 50 µM CDCA
  FXR antagonist Efficacy: 62 ± 4%
Human FXR [3]
  FXR agonist EC50: Inactive

## CO/N=C1\C[C@]2(C[C@@H]3C[C@@H](C/C=C(\C)C[C@@H](C)/C=C/C=C4\CO[C@@H]5[C@H](O)C(C)=C[C@@H](C(=O)O3)[C@]45O)O2)O[C@H](/C(C)=C/C(C)C)[C@H]1C [Moxidectin, moxidectin]
Human FXR [3]
  FXR agonist activity: did not show agonist activity

## COc1cccc2c1C(=O)c1c(O)c3c(c(O)c1C2=O)C[C@@](O)(C(=O)CO)C[C@@H]3O[C@H]1C[C@H](N2CCO[C@H](OC)C2)[C@H](O)[C@H](C)O1 [Nemorubicin]
[1]
  Cell viability IC50: Inactive

## COC(=O)C1=C(C)NC(C)=C(C(=O)OC)C1c1ccccc1[N+](=O)[O-] [Nifedipine]
Human FXR [2]; CDCA-induced
  FXR antagonist activity: antagonists
Human FXR [2]; [4]
  IC50: 34 µM
Human FXR [2]; [5]
  FXR antagonist mode Efficacy: 66 ± 46%
Human FXR [3]; Table S1, primary screening
  FXR agonist mode EC50: Inactive

## CCC1=C[C@@H]2CN(C1)Cc1c([nH]c3ccccc13)[C@@](C(=O)OC)(c1cc3c(cc1OC)N(C)[C@H]1[C@@](O)(C(=O)OC)[C@H](OC(C)=O)[C@]4(CC)C=CCN5CC[C@]31[C@@H]54)C2 [Vinorelbine]
[1]; Table S3
  Cytotoxicity Efficacy: 41 ± 5%
